Assay: Storage stability and light sensitivity of trimegestone in powder form
Type: physicochemical
Description: Trimegestone is thus a molecule which is in itself stable. However, stability problems can appear during the preparation of tablets or if conventional pharmaceutical compositions comprising trimegestone are stored at 40° C. (dry or damp medium) or under more severe conditions. In particular, the appearance of (20S)-17alpha-methyl-7beta-(1-hydroxy-2-oxo-propyl)-oestra-4,9-dien-3-one, the 21R epimer of trimegestone, or even of oxopromegestone is observed under these conditions.

C[C@H](O)C(=O)[C@@]1(C)CC[C@H]2[C@@H]3CCC4=CC(=O)CCC4=C3CC[C@@]21C [Trimegestone, (21S)-17alpha-methyl-17beta-(2-hydroxy-1-oxo-propyl)-oestra-4,9-dien-3-one]
Sensitivity to light: very low sensitivity to light | Stability after storage (3 months at 70° C. under an inert gas): stable | Stability after storage (6 months in a glass pill box at 50° C.): stable
